Converted amounts (≈) assume the structure as drawn. Some results are limits rather than exact numbers.

From ChEMBL document CHEMBL3779879, “Structural hybridization of three aminoglycoside antibiotics yields a potent broad-spectrum bactericide that eludes bacterial resistance enzymes” (2016) come the findings set out here.

Holding throughout (assay type): functional
The subject of assay [1] is Escherichia coli. The assay can be described thus: Antibacterial activity against Escherichia coli expressing ANT(2'')-I.
Assay [2] deals with Staphylococcus aureus. The assay can be described thus: Antibacterial activity against Staphylococcus aureus expressing APH(3'/5'')-III.
The next assay concerns Enterobacter cloacae. Briefly: Antibacterial activity against Enterobacter cloacae expressing APH(3')-I, ANT(2'')-I, AAC(6').
The test system of assay [3] is Staphylococcus aureus. The assay can be described thus: Antibacterial activity against Staphylococcus aureus expressing AAC(6')/APH(2'').
Assay [4] concerns Escherichia coli. The assay can be described thus: Antibacterial activity against Escherichia coli expressing AAC(3)-IV.
Assay [5] concerns Escherichia coli. The assay can be described thus: Antibacterial activity against Escherichia coli expressing APH(3')-Ib.
Assay [6] has as its system Pseudomonas aeruginosa. Briefly: Antibacterial activity against Pseudomonas aeruginosa expressing AAC(6')-II.
In assay [7] the test system is Pseudomonas aeruginosa. The assay can be described thus: Antibacterial activity against Pseudomonas aeruginosa expressing ANT(4')-II.
For assay [8], the system named is Staphylococcus aureus. The assay can be described thus: Antibacterial activity against Staphylococcus aureus ATCC 29213.
Assay [9] concerns Escherichia coli. Briefly: Antibacterial activity against Escherichia coli ATCC 25922.
In assay [10] the test system is Staphylococcus aureus. Briefly: Antibacterial activity against Staphylococcus aureus expressing ANT(4')-I.
Another assay deals with Klebsiella pneumoniae. Briefly: Antibacterial activity against Klebsiella pneumoniae ATCC 10031.
For assay [11], the system named is Acinetobacter baumannii. Briefly: Antibacterial activity against Acinetobacter baumannii.
Assay [12] concerns Pseudomonas aeruginosa. Briefly: Antibacterial activity against Pseudomonas aeruginosa ATCC 27853 expressing APH(3')-IIa.
For assay [13], the system named is Acinetobacter baumannii. The assay can be described thus: Antibacterial activity against Acinetobacter baumannii expressing AAC(3)-I, APH(3')-VI, ANT(2'')-I.
Assay [14] relates to Escherichia coli. Briefly: Antibacterial activity against Escherichia coli expressing A-site methyltransferase ArmA.

In the case of `NCC[C@H](O)C(=O)N[C@@H]1C[C@H](N)[C@@H](O[C@H]2O[C@H](CN)[C@@H](O)[C@H](O)[C@H]2O)[C@H](O)[C@H]1O[C@H]1O[C@H](CO)[C@@H](O)[C@H](N)[C@H]1O` [AMIKACIN], the MIC (in general, the least concentration at which growth counts as inhibited) against Escherichia coli [1] was 4 µg/mL (≈ 6.83 µM); with Staphylococcus aureus [2], 8 µg/mL (≈ 13.7 µM); with Enterobacter cloacae, 64 µg/mL (≈ 109 µM); in the assay on Staphylococcus aureus [3] it was 64 µg/mL (≈ 109 µM); against Escherichia coli [4], 2 µg/mL (≈ 3.42 µM); against Escherichia coli [5], 0.5 µg/mL (≈ 0.854 µM). Further, the MIC against Pseudomonas aeruginosa [6] was 4 µg/mL (≈ 6.83 µM); with Pseudomonas aeruginosa [7] it was 32 µg/mL (≈ 54.6 µM); against Staphylococcus aureus [8] it was 2 µg/mL (≈ 3.42 µM); in the assay with Escherichia coli [9], 2 µg/mL (≈ 3.42 µM); in the assay on Staphylococcus aureus [10] it was 64 µg/mL (≈ 109 µM); with Klebsiella pneumoniae, 0.5 µg/mL (≈ 0.854 µM). Moreover, the MIC was 2 µg/mL (≈ 3.42 µM) in the assay with Acinetobacter baumannii [11], 2 µg/mL (≈ 3.42 µM) in the assay on Pseudomonas aeruginosa [12], > 64 µg/mL in the assay on Acinetobacter baumannii [13] and > 64 µg/mL in the assay with Escherichia coli [14].

With `NC[C@@H]1O[C@H](O[C@H]2[C@@H](O)[C@H](O[C@@H]3[C@@H](O)[C@H](N)C[C@H](N)[C@H]3O[C@H]3O[C@H](CO)[C@@H](O)[C@H](O)[C@H]3N)O[C@@H]2CO)[C@H](N)[C@@H](O)[C@@H]1O` [PAROMOMYCIN], the MIC is 4 µg/mL (≈ 6.5 µM) with Escherichia coli [1]; > 64 µg/mL against Staphylococcus aureus [2]; > 64 µg/mL in the assay with Enterobacter cloacae; > 64 µg/mL in the assay on Staphylococcus aureus [3]; 8 µg/mL (≈ 13 µM) in the assay with Escherichia coli [4]; > 64 µg/mL against Escherichia coli [5]. Also, the MIC against Pseudomonas aeruginosa [6] is > 64 µg/mL; with Pseudomonas aeruginosa [7], > 64 µg/mL; in the assay with Staphylococcus aureus [8], 2 µg/mL (≈ 3.25 µM); with Escherichia coli [9] it was 4 µg/mL (≈ 6.5 µM); in the assay with Staphylococcus aureus [10], > 64 µg/mL; against Klebsiella pneumoniae, 2 µg/mL (≈ 3.25 µM). Moreover, the MIC is 4 µg/mL (≈ 6.5 µM) against Acinetobacter baumannii [11], > 64 µg/mL in the assay on Pseudomonas aeruginosa [12], > 64 µg/mL against Acinetobacter baumannii [13] and 4 µg/mL (≈ 6.5 µM) against Escherichia coli [14].

In the case of `NC[C@H]1O[C@H](O[C@H]2[C@H](O[C@@H]3O[C@H](CO)[C@@H](O)[C@H]3O)[C@@H](O)[C@H](N)C[C@@H]2N)[C@H](N)[C@@H](O)[C@@H]1O` [RIBOSTAMYCIN], the MIC in the assay on Escherichia coli [1] was 8 µg/mL (≈ 17.6 µM); with Staphylococcus aureus [2], > 64 µg/mL; in the assay with Enterobacter cloacae, > 64 µg/mL; against Staphylococcus aureus [3] it was > 64 µg/mL; against Escherichia coli [4] it was > 64 µg/mL; in the assay on Escherichia coli [5] it was > 64 µg/mL. The MIC is > 64 µg/mL with Pseudomonas aeruginosa [6]; > 64 µg/mL against Pseudomonas aeruginosa [7]; 16 µg/mL (≈ 35.2 µM) in the assay on Staphylococcus aureus [8]; 8 µg/mL (≈ 17.6 µM) against Escherichia coli [9]; > 64 µg/mL against Staphylococcus aureus [10]; 2 µg/mL (≈ 4.4 µM) in the assay on Klebsiella pneumoniae. Also, the MIC in the assay with Acinetobacter baumannii [11] was 8 µg/mL (≈ 17.6 µM); in the assay with Pseudomonas aeruginosa [12], > 64 µg/mL; against Acinetobacter baumannii [13], > 64 µg/mL; in the assay with Escherichia coli [14], 8 µg/mL (≈ 17.6 µM).

Take `CN[C@@H]1[C@@H](O)[C@@H](O[C@@H]2[C@@H](O)[C@H](O[C@H]3OC(CN)=CC[C@H]3N)[C@@H](N)C[C@H]2N)OC[C@]1(C)O` [SISOMICIN]: the MIC against Escherichia coli [1] was 64 µg/mL (≈ 143 µM); against Staphylococcus aureus [2], 0.25 µg/mL (≈ 0.559 µM); in the assay with Enterobacter cloacae, > 64 µg/mL; against Staphylococcus aureus [3], > 64 µg/mL; with Escherichia coli [4], 32 µg/mL (≈ 71.5 µM); with Escherichia coli [5], 0.25 µg/mL (≈ 0.559 µM). For the same compound, the MIC against Pseudomonas aeruginosa [6] came to 32 µg/mL (≈ 71.5 µM); against Pseudomonas aeruginosa [7], 1 µg/mL (≈ 2.23 µM); with Staphylococcus aureus [8] it was 0.5 µg/mL (≈ 1.12 µM); in the assay on Escherichia coli [9], 0.5 µg/mL (≈ 1.12 µM); in the assay on Staphylococcus aureus [10], 1 µg/mL (≈ 2.23 µM); with Klebsiella pneumoniae it was 0.25 µg/mL (≈ 0.559 µM). The MIC against Acinetobacter baumannii [11] is 0.5 µg/mL (≈ 1.12 µM); in the assay with Pseudomonas aeruginosa [12] it was 0.5 µg/mL (≈ 1.12 µM); with Acinetobacter baumannii [13], > 64 µg/mL; in the assay with Escherichia coli [14] it was > 64 µg/mL.
